From patent EP0811615A1, “1-Aryl-5-(substituted alkyl (thio) amido) pyrazoles and their use as pesticides” (RHONE-POULENC AGROCHIMIE, priority 1996, dated 1997)
Read-outs that look alike come from different tables or passages of the source.

Legend:
Format in all cases: in vivo
tobacco budworm = assay: Tobacco budworm foliar spray test on cotton plants; conditions: Heliothis virescens, 120 h, read-out: pest mortality TBW
Protocol: (§1) For mite, aphid, southern armyworm, Mexican bean beetle, and tobacco budworm tests, a solution or suspension was prepared by adding 10 mg of the test compound to a solution of 160 mg of dimethylformamide, 838 mg of acetone, 2 mg of a 3:1 ratio of Triton X-172 : Triton X-152 (respectively, mainly anionic and nonionic low foam emulsifiers which are each anhydrous blends of alkylaryl polyether alcohols with organic sulfonates), and […] of water. The result was a concentration of 100 ppm of the test compound.
Tobacco budworm: Potted cotton plants were placed on a revolving turntable and sprayed with 100 ml of the 100 ppm test compound formulation by use of a DeVilbiss spray gun set at 40 psig air pressure. As an untreated control, 100 ml of a water-acetone-DMF-emulsifier solution, containing no test compound, were also sprayed on plants. A treated control with a commercial technical compound, either cypermethrin or sulprofos, formulated in the same manner, was tested as a standard. When dry, the leaves were placed in plastic dishes containing a piece of filter paper and a moistened dental wick. One randomly selected second instar tobacco budworm larva was then introduced into each cup which was closed and held for five days. Larvae unable to move the length of their body, even upon stimulation by prodding, were considered dead.

Mexican bean beetle = Mexican bean beetle foliar spray test on bean plants; conditions: Epilachna varivestis, 120 h, read-out: pest mortality MBB
Protocol: as §1
(§2) Mexican bean beetle: Potted bean plants were placed on a revolving turntable and sprayed with 100 ml of the 100 ppm test compound formulation, sufficient to wet the plants to runoff, by use of a DeVilbiss spray gun set at 40 psig air pressure. As an untreated control, 100 ml of a water-acetone-DMF-emulsifier solution, containing no test compound, were also sprayed on plants. A treated control with a commercial technical compound, either cypermethrin or sulprofos, formulated in the same manner, was tested as a standard. When dry, the leaves were placed in plastic cups lined with moistened filter paper. Five randomly selected second instar Mexican bean beetle larvae were introduced into each cup which was closed and held for five days. Larvae which were unable to move the length of the body, even upon stimulation by prodding, were considered dead.

southern armyworm = assay: Southern armyworm foliar spray test on bean plants; conditions: Spodoptera eridania, 120 h, read-out: pest mortality SAW
Protocol: as §1
as §2, with “Southern armyworm: Potted” for “Mexican bean beetle: Potted”, “bean plants,” for “bean plants”, “compound formulation” for “compound formulation, sufficient to wet the plants to runoff,”, “instar southern armyworm” for “instar Mexican bean beetle”

housefly = assay: House fly bait test; conditions: Musca domestica, read-out: pest mortality HF
Text: For housefly tests, the formulation was initially prepared in a similar manner to the above, but in 16.3 g of water with corresponding adjustment of other components, providing a 200 ppm concentration. Final dilution with an equal volume of a 20% by weight aqueous solution of sucrose provided a 100 ppm concentration of the test compound. When necessary, sonication was provided to insure complete dispersion.
House fly: Four to six day old adult house flies were reared according to the specifications of the Chemical Specialties Manufacturing Association (Blue Book, McNair-Dorland Co., N.Y. 1954; pages 243-244, 261) under controlled conditions. The flies were immobilized by anesthetizing with carbon dioxide and twenty five immobilized individuals, males and females, were transferred to a cage consisting of a standard food strainer and a wrapping-paper-covered surface. Ten ml of the 100 ppm test compound formulation were added to a soufflé cup containing an absorbent cotton pad. As an untreated control, 10 ml of a water-acetone-DMF-emulsifier-sucrose solution, containing no test compound, were applied in a similar manner. A treated control with a commercial technical compound, malathion, formulated in the same manner, was tested as a standard. The bait cup was introduced inside the food strainer prior to admitting the anesthetized flies.

[1] = foliar application at 100 ppm, second instar larvae, held five days
[2] = bait application at 100 ppm, adult flies, after 24 hours

Row | SMILES | mortality at 100 ppm (tobacco budworm; [1]) | mortality at 100 ppm (southern armyworm; [1]) | mortality at 100 ppm (housefly; [2]) | further results
1 | COCC(=O)Nc1c(SC(F)(F)F)c(C#N)nn1-c1c(Cl)cc(C(F)(F)F)cc1Cl [Compound 1, 1-(2,6-dichloro-4-trifluoromethylphenyl)-3-cyano-4-trifluoromethylsulfenyl-5-(methoxyacetamido)pyrazole] | – | – | – | mortality at 100 ppm (tobacco budworm; foliar): 70 to 100%; mortality at 100 ppm (Mexican bean beetle; foliar): 70 to 100%; mortality at 100 ppm (southern armyworm; foliar): 70 to 100%; mortality at 100 ppm (housefly; 24 h): 70 to 100%
2 | COCCOCC(=O)Nc1c(SC(F)(F)F)c(C#N)nn1-c1c(Cl)cc(C(F)(F)F)cc1Cl [Compound 3] | 70 to 100% | 70 to 100% | 70 to 100% | mortality at 100 ppm (Mexican bean beetle; [1]): 70 to 100%
3 | COCCOCCOCC(=O)Nc1c(SC(F)(F)F)c(C#N)nn1-c1c(Cl)cc(C(F)(F)F)cc1Cl [Compound 4] | 70 to 100% | 70 to 100% | 70 to 100% | –
4 | COC(=O)CCC(=O)Nc1c(SC(F)(F)F)c(C#N)nn1-c1c(Cl)cc(C(F)(F)F)cc1Cl [Compound 5] | 70 to 100% | 70 to 100% | 70 to 100% | –
5 | CCCCOCC(=O)Nc1c(SC(F)(F)F)c(C#N)nn1-c1c(Cl)cc(C(F)(F)F)cc1Cl [Compound 6] | 70 to 100% | 70 to 100% | 70 to 100% | –
6 | COCCOCCOCC(=O)Nc1c([S+]([O-])C(F)(F)F)c(C#N)nn1-c1c(Cl)cc(C(F)(F)F)cc1Cl (stereo not shown) [Compound 10] | – | 70 to 100% | – | –
7 | COCC(=O)Nc1c(SC(F)(Cl)Cl)c(C#N)nn1-c1c(Cl)cc(C(F)(F)F)cc1Cl [Compound 14] | 70 to 100% | 70 to 100% | 70 to 100% | –
8 | CCOCC(=O)Nc1c(SC(F)(Cl)Cl)c(C#N)nn1-c1c(Cl)cc(C(F)(F)F)cc1Cl [Compound 15] | 70 to 100% | 70 to 100% | 70 to 100% | –
9 | COCCOCC(=O)Nc1c(SC(F)(Cl)Cl)c(C#N)nn1-c1c(Cl)cc(C(F)(F)F)cc1Cl [Compound 16] | 70 to 100% | 70 to 100% | 70 to 100% | –
10 | COCC(=O)Nc1c([S+]([O-])C(F)F)c(C#N)nn1-c1c(Cl)cc(C(F)(F)F)cc1Cl (stereo not shown) [Compound 19] | – | 70 to 100% | 70 to 100% | –
11 | CC(C)OCC(=O)Nc1c(SC(F)(F)F)c(C#N)nn1-c1c(Cl)cc(C(F)(F)F)cc1Cl [Compound 20] | 70 to 100% | 70 to 100% | 70 to 100% | mortality at 100 ppm (Mexican bean beetle; [1]): 70 to 100%
12 | COC(C)C(=O)Nc1c(SC(F)(F)F)c(C#N)nn1-c1c(Cl)cc(C(F)(F)F)cc1Cl (stereo not shown) [Compound 21] | 70 to 100% | 70 to 100% | 70 to 100% | –
13 | COC(C(=O)Nc1c(SC(F)(F)F)c(C#N)nn1-c1c(Cl)cc(C(F)(F)F)cc1Cl)C(C)C (stereo not shown) [Compound 23] | 70 to 100% | 70 to 100% | – | –
14 | COC(C)C(=O)Nc1c(SC(F)(Cl)Cl)c(C#N)nn1-c1c(Cl)cc(C(F)(F)F)cc1Cl (stereo not shown) [Compound 26] | 70 to 100% | 70 to 100% | 70 to 100% | –
15 | COC(C(=O)Nc1c(SC(F)(Cl)Cl)c(C#N)nn1-c1c(Cl)cc(C(F)(F)F)cc1Cl)C(C)C (stereo not shown) [Compound 27] | 70 to 100% | 70 to 100% | – | –
16 | COC(C(=O)Nc1c([S+]([O-])C(F)(Cl)Cl)c(C#N)nn1-c1c(Cl)cc(C(F)(F)F)cc1Cl)C(C)C (stereo not shown) [Compound 29] | – | 70 to 100% | – | mortality at 100 ppm (Mexican bean beetle; [1]): 70 to 100%
17 | COC(C)(C)C(=O)Nc1c(SC(F)(F)F)c(C#N)nn1-c1c(Cl)cc(C(F)(F)F)cc1Cl [Compound 30] | 70 to 100% | 70 to 100% | – | –
18 | COC(C)(C)C(=O)Nc1c(SC(F)(Cl)Cl)c(C#N)nn1-c1c(Cl)cc(C(F)(F)F)cc1Cl [Compound 31] | 70 to 100% | 70 to 100% | – | –
19 | CCCCCCOCC(=O)Nc1c(SC(F)(F)F)c(C#N)nn1-c1c(Cl)cc(C(F)(F)F)cc1Cl [Compound 33] | 70 to 100% | – | – | –
20 | CC(C)COCC(=O)Nc1c(SC(F)(F)F)c(C#N)nn1-c1c(Cl)cc(C(F)(F)F)cc1Cl [Compound 35] | – | 70 to 100% | 70 to 100% | mortality at 100 ppm (Mexican bean beetle; [1]): 70 to 100%
21 | CCCCCCCCCCCCOCC(=O)Nc1c(SC(F)(F)F)c(C#N)nn1-c1c(Cl)cc(C(F)(F)F)cc1Cl [Compound 36] | – | – | 70 to 100% | –
22 | CCC(OC)C(=O)Nc1c(SC(F)(Cl)Cl)c(C#N)nn1-c1c(Cl)cc(C(F)(F)F)cc1Cl (stereo not shown) [Compound 37] | 70 to 100% | 70 to 100% | 70 to 100% | –
23 | CCC(OC)C(=O)Nc1c(SC(F)(F)F)c(C#N)nn1-c1c(Cl)cc(C(F)(F)F)cc1Cl (stereo not shown) [Compound 38] | 70 to 100% | 70 to 100% | 70 to 100% | –
24 | CCOC(CC)C(=O)Nc1c(SC(F)(F)F)c(C#N)nn1-c1c(Cl)cc(C(F)(F)F)cc1Cl (stereo not shown) [Compound 40] | – | 70 to 100% | 70 to 100% | –
25 | CCCC(OCC)C(=O)Nc1c(SC(F)(F)F)c(C#N)nn1-c1c(Cl)cc(C(F)(F)F)cc1Cl (stereo not shown) [Compound 41] | – | 70 to 100% | 70 to 100% | –
26 | CC(C)COC(C)C(=O)Nc1c(SC(F)(F)F)c(C#N)nn1-c1c(Cl)cc(C(F)(F)F)cc1Cl (stereo not shown) [Compound 43] | 70 to 100% | 70 to 100% | 70 to 100% | –
27 | CC(C)COC(C)C(=O)Nc1c([S+]([O-])C(F)(F)F)c(C#N)nn1-c1c(Cl)cc(C(F)(F)F)cc1Cl (stereo not shown) [Compound 44] | – | 70 to 100% | 70 to 100% | mortality at 100 ppm (Mexican bean beetle; [1]): 70 to 100%
28 | CCOC(C)C(=O)Nc1c(SC(F)(Cl)Cl)c(C#N)nn1-c1c(Cl)cc(C(F)(F)F)cc1Cl (stereo not shown) [Compound 45] | 70 to 100% | 70 to 100% | 70 to 100% | mortality at 100 ppm (Mexican bean beetle; [1]): 70 to 100%
29 | C#CCN(C(=O)COC)c1c(SC(F)(F)F)c(C#N)nn1-c1c(Cl)cc(OC(F)(F)F)cc1Cl [Compound 48] | 70 to 100% | 70 to 100% | 70 to 100% | –
30 | COCC(=O)Nc1c([N+](=O)[O-])c(Br)nn1-c1c(Cl)cc(C(F)(F)F)cc1Cl [Compound 49] | 70 to 100% | 70 to 100% | – | –
